According to US20240059703A1 (AMGEN INC., priority 2021, published 2024):

target: KRAS G12C (Homo sapiens (Human), UniProt P01116, C118A/G12C); experiment: 2 h coupled exchange assay; type: biochemical; settings: Avg 2 h Coupled exchange IC50, 2 h compound pre-incubation
Description: The term “2 h coupled exchange assay” or “20 h coupled exchange assay” as used herein refers to the assay described in the Section entitled “BIOLOGICAL EVALUATION.”

Sequence of KRAS G12C (P01116 other isoform, or with tags, fused parts or gaps G12C/C118A): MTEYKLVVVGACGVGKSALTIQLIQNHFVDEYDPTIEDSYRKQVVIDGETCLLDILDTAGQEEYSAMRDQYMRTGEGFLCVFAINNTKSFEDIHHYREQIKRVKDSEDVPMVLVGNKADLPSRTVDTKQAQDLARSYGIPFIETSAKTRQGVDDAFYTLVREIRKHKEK

| Compound | IC50 |
| --- | --- |
| C=CC(=O)N1CC2(CCN(c3nc4c(c(-c5c(C)ccc6[nH]ncc56)c3C)COC(C)(C)C4)C2)C1 (single isomer, unassigned) [Example 14-34, (M)-1-(6-(3,7,7-trimethyl-4-(5-methyl-1H-indazol-4-yl)-7,8-dihydro-5H-pyrano[4,3-b]pyridin-2-yl)-2,6-diazaspiro[3.4]octan-2-yl)-2-propen-1-one] | 7590 nM |
| C=CC(=O)N1CC2(CCN(c3nc4c(c(-c5cc(O)ccc5C)c3F)COC(C)(C)C4)C2)C1 (single isomer, unassigned) [Example 14-62, (P)-1-(6-(3-fluoro-4-(5-hydroxy-2-methylphenyl)-7,7-dimethyl-7,8-dihydro-5H-pyrano[4,3-b]pyridin-2-yl)-2,6-diazaspiro[3.4]octan-2-yl)-2-propen-1-one] | 696 nM |

The remaining lines, values ahead:

| IC50 | Compound |
| --- | --- |
| 599 nM | Cc1ccc2[nH]ncc2c1-c1c(Cl)c(N2CCC3(CN(C(=O)/C=C/CN(C)C)C3)C2)cc2c1OCCC2 [Example 32-1, (2E)-1-(6-(7-chloro-8-(5-methyl-1H-indazol-4-yl)-3,4-dihydro-2H-chromen-6-yl)-2,6-diazaspiro[3.4]octan-2-yl)-4-(dimethylamino)-2-buten-1-one] |
| 347 nM | C=CC(=O)N1CC2(CCN(c3nc4cc(-c5ccnn5C)ccc4c(-c4cc(O)ccc4F)c3C)C2)C1 [Example 16-11, 1-(6-(4-(2-fluoro-5-hydroxyphenyl)-3-methyl-7-(1-methyl-1H-pyrazol-5-yl)-2-quinolinyl)-2,6-diazaspiro[3,4]octan-2-yl)-2-propen-1-one] |
| 373 nM | C=CC(=O)N1CC2(CCN(c3nc4cc(-c5ccnn5C)ccc4c(-c4cc(O)c(F)cc4Cl)c3C)C2)C1 [Example 16-14, 1-(6-(4-(2-chloro-4-fluoro-5-hydroxyphenyl)-3-methyl-7-(1-methyl-1H-pyrazol-5-yl)-2-quinolinyl)-2,6-diazaspiro[3.4]octan-2-yl)-2-propen-1-one] |

same assay, conditions: Avg 2 h Coupled exchange IC50, 2 h compound pre-incubation, SOS-mediated nucleotide exchange

| IC50 | Compound |
| --- | --- |
| 12600 nM | C=CC(=O)N1CC2(CCN(c3nc4c(c(-c5cc(O)ccc5C)c3C#N)C[C@H]3C[C@@H]4C3)C2)C1 (single isomer, unassigned) [Example 13-125] |
| 2900 nM | C=CC(=O)N1CC2(CCN(c3nc4c(c(-c5cccc6cc(O)ccc56)c3C)CCC(C)(C)C4)C2)C1 (single isomer, unassigned) [Example 2-14, (M)-1-(6-(4-(6-hydroxy-1-naphthalenyl)-3,7,7-trimethyl-5,6,7,8-tetrahydro-2-quinolinyl)-2,6-diazaspiro[3.4]ctan-2-yl)-2-opropen-1-one] |
| 298 nM | C=CC(=O)N1CC2(C1)CN(c1nc3c(c(-c4c(C)ccc5cnn(C)c45)c1C#N)COC(C)(C)C3)CC2(F)F [Example 13-47, 2-(8,8-difluoro-2-(2-propenoyl)-2,6-diazaspiro[3.4]octan-6-yl)-4-(1,6-dimethyl-1H-indazol-7-yl)-7,7-dimethyl-7,8-dihydro-5H-pyrano[4,3-b]pyridine-3-carbonitrile] |
| 7110 nM | C=CC(=O)N1CC2(CCN(c3cc4c(c(-c5cc(O)cc6ccccc56)c3C#N)OCCC4)C2)C1 (single isomer, unassigned) [Example 2-53, (P)-8-(3-hydroxy-1-naphthalenyl)-6-(2-(2-propenoyl)-2,6-diazaspiro[3.4]octan-6-yl)-3,4-dihydro-2H-chromene-7-carbonitrile] |
| 291 nM | C=CC(=O)N1CC2(CCN(c3nc4c(c(-c5cc(O)c(F)c6ccccc56)c3C#N)CC(C)(C)C4)C2)C1 [Example 13-70, 4-(4-fluoro-3-hydroxy-1-naphthalenyl)-6,6-dimethyl-2-(2-(2-propenoyl)-2,6-diazaspiro[3.4]octan-6-yl)-6,7-dihydro-5H-cyclopenta[b]pyridine-3-carbonitrile] |
| 652 nM | C=CC(=O)N1CC2(CCN(c3nc4c(c(-c5c(C)ccc6cnn(C)c56)c3C#N)C[C@H]3C[C@@H]4C3)[C@H]2C)C1 (single isomer, unassigned) [Example 13-31] |
